From ChEMBL document CHEMBL4261614, “Discovery of traditional Chinese medicine monomers and their synthetic intermediates, analogs or derivatives for battling P-gp-mediated multi-drug resistance” (Eur J Med Chem, 2018)

Columns and labels:
Homo sapiens = organism: Homo sapiens; test: Inhibition of P-gp in human KBv200 cells assessed as potentiation of vincristine-induced cytotoxicity by measuring reduction in vincristine IC50 at 25 uM after 96 hrs by […] relative to vincristine alone; assay type: cell-based
[1] = target: ATP-dependent translocase ABCB1 (Homo sapiens, UniProt P08183); test: Inhibition of MDR1 (unknown origin) expressed in MDCK-MDR1 cells assessed as increase in Rh123 accumulation at 100 uM after 30 mins by spectrofluorometric analysis relative to control; assay type: cell-based; conditions: mdck-mdr1, 0.5 h
Sequence of ATP-dependent translocase ABCB1 (P08183 whole entry): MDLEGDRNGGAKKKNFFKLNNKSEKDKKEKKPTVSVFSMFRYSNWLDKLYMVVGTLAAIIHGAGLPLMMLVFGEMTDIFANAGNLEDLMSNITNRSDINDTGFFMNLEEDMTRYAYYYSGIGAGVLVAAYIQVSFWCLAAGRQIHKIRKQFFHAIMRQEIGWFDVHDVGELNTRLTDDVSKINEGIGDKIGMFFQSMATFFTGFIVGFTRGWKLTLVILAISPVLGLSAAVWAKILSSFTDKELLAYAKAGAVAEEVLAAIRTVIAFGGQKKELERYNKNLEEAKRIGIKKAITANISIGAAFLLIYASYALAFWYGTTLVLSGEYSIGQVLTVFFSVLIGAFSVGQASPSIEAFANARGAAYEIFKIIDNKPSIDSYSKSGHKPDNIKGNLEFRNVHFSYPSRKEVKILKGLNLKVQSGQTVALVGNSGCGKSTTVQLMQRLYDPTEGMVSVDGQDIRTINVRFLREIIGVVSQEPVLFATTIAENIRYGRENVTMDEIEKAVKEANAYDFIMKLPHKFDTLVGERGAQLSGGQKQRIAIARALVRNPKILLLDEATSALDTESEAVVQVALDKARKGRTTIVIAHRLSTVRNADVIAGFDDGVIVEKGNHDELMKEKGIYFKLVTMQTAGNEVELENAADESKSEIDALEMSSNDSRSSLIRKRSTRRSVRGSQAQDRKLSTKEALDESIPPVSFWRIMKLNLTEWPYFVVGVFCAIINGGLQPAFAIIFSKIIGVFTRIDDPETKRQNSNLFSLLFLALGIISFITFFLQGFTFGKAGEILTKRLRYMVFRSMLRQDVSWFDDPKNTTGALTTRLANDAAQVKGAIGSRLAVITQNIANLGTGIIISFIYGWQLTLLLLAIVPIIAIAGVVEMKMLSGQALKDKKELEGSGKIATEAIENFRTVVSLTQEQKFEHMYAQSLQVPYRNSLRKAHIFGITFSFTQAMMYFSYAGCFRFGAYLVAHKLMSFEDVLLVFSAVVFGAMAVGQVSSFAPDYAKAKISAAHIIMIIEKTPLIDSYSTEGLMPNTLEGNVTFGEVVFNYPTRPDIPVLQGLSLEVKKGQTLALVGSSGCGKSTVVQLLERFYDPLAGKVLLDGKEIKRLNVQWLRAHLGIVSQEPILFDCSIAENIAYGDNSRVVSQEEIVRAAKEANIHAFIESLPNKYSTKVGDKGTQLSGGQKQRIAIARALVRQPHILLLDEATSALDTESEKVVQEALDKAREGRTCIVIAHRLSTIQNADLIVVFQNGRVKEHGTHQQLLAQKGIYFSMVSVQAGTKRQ

| SMILES | Ratio IC50 (Homo sapiens) | fold change (FC) [1] |
| --- | --- | --- |
| COc1cc2c(c(OC)c1OC)-c1c(cc(OC)c(OC)c1OC)C[C@H](C)[C@H](C)C2 | 309 |  |
| COc1cc2c(c(OC)c1OC)-c1c(cc3c(c1OC)OCO3)CC(C)C(C)C2 (centres undefined) | 23.5 |  |
| COc1cc2c(c(OC)c1OC)-c1c(cc(OC)c(OC)c1OC)C[C@](C)(O)[C@@H](C)C2 | 3.8 |  |
| CC(C)C(=O)OC(C)(C)[C@@H]1Cc2c(ccc3ccc(=O)oc23)O1 |  | 9 |
